In data set [1] the test system is MCF-7 cells. To be noted: 24 hours after treatment; 0.5, 1.0, 2.0 mmol; combination 0.5 mmol morphine+0.1 mmol naloxone and 1 mmol+1 mmol.
Data set [2] deals with MCF-7 cells. The experiment in a line: Flow cytometry of annexin V and 7-AAD binding, apoptosis rate (FIG. 6). It is filed as cell-based, human.
Data set [3] is described as follows: Development of the body weight during treatment (FIG. 1B). To be noted: 3 weeks of treatment as in FIG. 1A. As to the method: In an established pharmacological animal model, naked mice (NMRI-nu/nu; Harlan, Borchen) received a subcutaneous injection containing a cell suspension (5×10^6 cells in 300 μl per mouse) of human breast carcinoma cells (MCF-7 cell line).
A total of 5×10^6 cells were injected subcutaneously per mouse. […] The animals were treated with 10 mg/kg β-estradiol valerate (i.m.) one day before and 7 and 14 days after the injection of tumor cells. […] Tumor volume=(long diameter×short diameter^2)/2.
FIG. 1B Development of the body weight during treatment. Treatment as in 1A.

The subject of data set [4] is MCF-7 cells. The experiment in a line: Cytotoxic effects, survival rate of the cells (FIG. 3B). To be noted: standardized to untreated control cells = 100%; combinations with 100 μmol DAMGO. The source says: The same cell line was used to determine the cytotoxic effects of these active ingredients by determining the rate of survival of the cells (FIG. 3B). […] TNFα was used as a positive control.
The survival rate was standardized to the number of untreated control cells representing 100%. Means±SEM from 4 repeat experiments.

The subject of data set [5] is MCF-7 cells. The experiment in a line: DNA cleavage rate with apoptosis assay kit (FIG. 4). Format: cell-based, human. To be noted: 500 μmol; incubation for 24 hours. As to the method:
In order to characterize apoptosis (cell death) in more detail, a commercial apoptosis assay kit that is in common use in science was used to measure the rate of DNA cleavage (FIG. 4).
FIG. 4 DNA cleavage rate after incubation of MCF-7 cells for 24 hours with the active ingredients at the dosages indicated on the abscissa. Means±SEM from 6 independent experiments. DNA cleavage was measured by assaying the mono- and oligonucleosomes with an apoptosis detection kit containing antihistones and anti-DNA antibodies.

For data set [6], the system named is human MCF-7 breast cancer cells. The experiment in a line: Cell proliferation test (FIG. 3A). To be noted: for proliferation of MCF-7 cells compared to the untreated control: 100 or 500 μmol DAMGO, 100 μmol naloxone, 500 μmol DAMGO+100 μmol naloxone. It is filed as cell-based. The source says:
FIG. 3A Proliferation of MCF-7 cells in vitro after treatment with 100 μmol DAMGO (solid triangles), 500 μmol DAMGO (solid squares)(left), 100 μmol naloxone (open circles) or the mixture containing 500 μmol DAMGO+100 μmol naloxone (open triangles)(right) versus untreated control cells (solid circles). Means±SEM from 4-6 repeat experiments.

Data set [7] deals with MCF-7 cells. To be noted: cited from earlier work.
Where [8] appears, read: 1 mmol, 24 hours after treatment (not shown).
Setting [9] is: 2 mmol, 24 hours after treatment.
Setting [10] is: 3 mmol, 24 hours after treatment.

The values that follow come from patent publication US20050043280A1, “Use of active ingredients having a mu-opioid receptor agonist action and an opiod receptor antognist action, as combination drugs for the treatment of cancer” (priority 2001, published 2005).

Take `CN1CC[C@]23c4c5ccc(O)c4O[C@H]2[C@@H](O)C=C[C@H]3[C@H]1C5` [morphine]: the “number of cells in G1 phase (block of cell cycle from G1 to S phase)” value in the data set on MCF-7 cells [1] was “concentration-dependent increase in the number of cells in G1 phase”. The “number of cells in late apoptosis” value with MCF-7 cells [2] (setting [8]) is “no longer detectable”; in the data set on MCF-7 cells [2] (setting [9]), “less pronounced”; with MCF-7 cells [2] (setting [10]) it was “clear increase in the number of cells in late apoptosis”. Moreover, in data set [3], the body weight entry is on record as “weight loss”.

As for `C[C@@H](NC(=O)[C@@H](N)Cc1ccc(O)cc1)C(=O)NCC(=O)N(C)[C@@H](Cc1ccccc1)C(=O)NCCO` [DAMGO, (D-Ala2, N-Methyl-Phe4, Gly-ol5)enkephalin], the “survival rate of MCF-7 cells (cytotoxic effect)” value in the data set on MCF-7 cells [4] is listed as “concentration-dependent positive effect on the survival rate”. Besides, the “rate of DNA cleavage compared to the untreated control” value with MCF-7 cells [5] is reported as “increase significantly”. The “proliferation of MCF-7 cells compared to the untreated control” value in data set [6] was “reduced the cell division cycle substantially in a concentration-dependent fashion”. Besides, in data set [6] (DAMGO-treated cultures), the “time at which the maximal number of cells was attained” value stood at 48 h. For the same compound, the “cell death in treated cultures” value in data set [6] (between 48 and 72 hours) is listed as “a fraction of the cells on DAMGO treatment died”.

In the case of TNFα, in the data set on MCF-7 cells [7], the “apoptosis in MCF-7 cells (positive control, known effect)” value was “induce apoptosis”.

With `C=CCN1CC[C@]23c4c5ccc(O)c4O[C@H]2C(=O)CC[C@@]3(O)[C@H]1C5` [naloxone], the “number of cells in G1 phase (block of cell cycle from G1 to S phase)” value in the data set with MCF-7 cells [1] is listed as “block the cell cycle in a similar fashion”. Also, the “number of cells in late apoptosis” value with MCF-7 cells [2] (setting [8]) is “no longer detectable”; in the data set with MCF-7 cells [2] (setting [9]), “less pronounced”; in the data set on MCF-7 cells [2] (setting [10]), “clear increase in the number of cells in late apoptosis”. In the data set with MCF-7 cells [4], the “survival rate of MCF-7 cells (cytotoxic effect)” value is “concentration-dependent positive effect on the survival rate”. In the data set with MCF-7 cells [5], the “rate of DNA cleavage compared to the untreated control” value is on record as “increase significantly”. Also, in data set [6], the “proliferation of MCF-7 cells compared to the untreated control” value is “growth-inhibitory effect”. For the same compound, in data set [3], the body weight result was “increased slightly”.
